The test system of one experiment is 143B. Description: Sensitivity test: cell viability (Cell Counting Kit-8) after anticancer agent, RNA-transfected cells. In kind it is cell-based, Human. To be noted: 143B cells, MTX 72 hours, DOX and CDDP 48 hours. As to the method:
(§1) Human osteosarcoma cell lines used were MNNG/HOS, MG63 and 143B. The cells were seeded in a 96-well plate at 3 x 10^3 cells/well. After 24 hours, the medium was replaced with fresh medium and miRNA-100 (SEQ ID NO: 1), miRNA-125b (SEQ ID NO: 2) or negative control (nonsense RNA) (microRNA control, Non-target RNA (S10CM0600; COSMO BIO Co., Ltd)) was introduced to the cells using DharmaFECT transfection reagents (Thermo Scientific). At 24 hours after RNA introduction, the medium was replaced with fresh medium. Specific procedures followed the protocol attached to the gene transfer reagents used.
(§2) Methotrexate (MTX), doxorubicin (DOX) and cisplatin (CDDP) were applied to the cells lines MNNG/HOS, MG63 or 143B to which various RNAs were introduced under following conditions followed by incubation over a certain period. The viability of the cells thereafter was measured with the Cell Counting Kit-8 (Dojindo Laboratories). Specific procedures followed the protocol attached to the kit used.
(§3) Methotrexate (MTX): applied at a final concentration of 0 to 32 µM and incubated for 72 hours.
(§4) Doxorubicin (DOX): applied at a concentration of 0 to 1.3 µM and incubated for 48 hours.
(§5) Cisplatin (CDDP): applied at a final concentration of 0 to 32 µM and incubated for 48 hours.
(§6) From the results of measurement of the viability of the cells, the 50% inhibitory concentration of cell proliferation (IC50) for each anticancer agent was determined.
For orientation: Formazan colour is commonly taken as a measure of viable cells.

For the next experiment, the system named is MG63. The description is as above. In kind it is cell-based, Human. To be noted: MTX 72 hours, DOX and CDDP 48 hours. The method, then:
as §1, §2, §3, §4, §5, §6

The test system of the next experiment is MNNG/HOS. Described as above. The class given is cell-based, Human. To be noted: MTX 72 hours, DOX and CDDP 48 hours. As to the method: as §1, §2, §3, §4, §5, §6
In another experiment the test system is BAK1. Description: BAK1 protein expression by western blotting in RNA-transfected MNNG/HOS cells. Particulars: with application of DOX 64 µM, 48 hours, Fig. 8. The class given is cell-based, human. As to the method:
A human osteosarcoma cell line used was MNNG/HOS. The cells were seeded in a 96-well plate at 3 x 10^3 cells/well. After 24 hours, the medium was replaced with fresh medium and miRNA-125b (SEQ ID NO: 2) or negative control (nonsense RNA) (microRNA control, Non-target RNA (S10CM0600; COSMO BIO Co., Ltd)) was introduced to the cells using DharmaFECT transfection reagents (Thermo Scientific). At 24 hours after RNA introduction, the medium was replaced with fresh medium. Specific procedures followed the protocol attached to the gene transfer reagents used.
Doxorubicin (DOX) at a final concentration of 0 µM or 64 µM was applied to MNNG/HOS cells to which various RNAs were introduced as above (1) and then the cells were incubated for 48 hours. To the collected cells was added a urea-containing lysis buffer and the mixture was incubated on ice for 30 minutes to lyse the cells. The lysed cells were centrifuged at 15,000 rpm for 30 minutes at 4°C and the supernatant was collected. The protein concentration in the supernatant was quantified by the Bradford assay (Bio-Rad).
Proteins in the supernatant were separated by electrophoresis using an SDS/polyacrylamide gel and transferred onto a nitrocellulose membrane (Bio-Rad). […] After the membrane was washed with TBS-T, the antigen-antibody complex was detected with the ECL-Prime kit (GE).
For orientation: A western blot detects proteins with antibodies after separation by electrophoresis.

The mark [1] stands for this setting: control (negative control nonsense RNA) introduced.
Where [2] appears, read: Homo sapiens, 143B, control (negative control nonsense RNA) introduced.
Where [3] appears, read: Homo sapiens, 143B, miR-100 introduced.
The mark [4] stands for this setting: Homo sapiens, 143B, miR-125b introduced.
[5] abbreviates: Homo sapiens, MG-63, MG63 cells, control (negative control nonsense RNA) introduced.
[6] abbreviates: Homo sapiens, MG-63, MG63 cells, miR-100 introduced.
[7] abbreviates: Homo sapiens, MG-63, MG63 cells, miR-125b introduced.
Where [8] appears, read: Homo sapiens, HOS, control (negative control nonsense RNA) introduced.
[9] abbreviates: Homo sapiens, HOS, miR-100 introduced.
Setting [10] is: Homo sapiens, HOS, miR-125b introduced.

The term IC50 denotes the concentration that inhibits the measured activity by half. Read a low IC50 as greater potency.

For the compound `[NH2][Pt]([NH2])([Cl])[Cl]` [CDDP, Cisplatin], the IC50 in the experiment with 143B (setting [1]) was found to be 12.3 µM; in the experiment with 143B (miR-100 introduced) it was 14.5 µM; in the experiment on 143B (miR-125b introduced), 14.1 µM; in the experiment on MG63 (MG63 cells, control (negative control nonsense RNA) introduced), 2.91 µM; in the experiment on MG63 (MG63 cells, miR-100 introduced), 2.57 µM; in the experiment with MG63 (MG63 cells, miR-125b introduced), 1.63 µM. The IC50 was 5.7 µM in the experiment on MNNG/HOS (setting [1]), 6.97 µM in the experiment on MNNG/HOS (miR-100 introduced) and 7.32 µM in the experiment on MNNG/HOS (miR-125b introduced).
Turning to `COc1cccc2c1C(=O)c1c(O)c3c(c(O)c1C2=O)C[C@@](O)(C(=O)CO)C[C@@H]3O[C@H]1C[C@H](N)[C@H](O)[C@H](C)O1` [DOX, Doxorubicin], the half-maximal inhibitory concentration (IC50) is 0.064 µM with 143B (setting [2]); 0.077 µM in the experiment on 143B (setting [3]); 0.072 µM in the experiment with 143B (setting [4]); 0.065 µM in the experiment on MG63 (setting [5]); 0.073 µM in the experiment on MG63 (setting [6]); 0.074 µM in the experiment with MG63 (setting [7]). Besides, the results for the concentration for half-maximal inhibition (IC50) with MNNG/HOS (setting [8]), with MNNG/HOS (setting [9]) and with MNNG/HOS (setting [10]) were 0.18 µM, 0.25 µM and 0.37 µM, respectively. The “expression level of BAK1 in NC versus miRNA-125b-introduced cell line” value in the experiment with BAK1 was “almost the same”.
Regarding `CN(Cc1cnc2nc(N)nc(N)c2n1)c1ccc(C(=O)N[C@@H](CCC(=O)O)C(=O)O)cc1` [MTX, Methotrexate], the IC50 with 143B (setting [2]) turned out to be 1.49 µM; with 143B (setting [3]), 3.21 µM; with 143B (setting [4]) it was 3.97 µM; in the experiment on MG63 (setting [5]), 3.09 µM; with MG63 (setting [6]), 7.18 µM; in the experiment on MG63 (setting [7]), 7.74 µM. The half-inhibitory concentration (IC50) in the experiment with MNNG/HOS (setting [8]) was found to be 1.05 µM; with MNNG/HOS (setting [9]), 2.52 µM; in the experiment on MNNG/HOS (setting [10]), 4.03 µM.
